Measured values from patent US20210186954A1, “DRUG PRODUCTS FOR NASAL ADMINISTRATION AND USES THEREOF” (Summit Biosciences Inc., priority 2018, published 2021).
Where two headings read alike, the source gives them in different places.

What was measured:
[1] = Dissolution of chlorobutanol in water during preparation of F1(d); assay type: physicochemical
Procedure: Chlorobutanol dissolves into water very slowly at ambient temperatures. Therefore during the preparation of F1(d), USP-PW was heated. After 18 minutes, the solution was clear and all of the chlorobutanol was completely dissolved.

[2] = tested on: heroin overdose; settings: IM naloxone; cited from earlier work
[3] = tested on: overdose events; settings: 399 overdose events where naloxone was used; cited from earlier work
[4] = tested on: suspected opiate overdose; settings: cited from earlier work
[5] = tested on: patients with suspected opioid overdose; settings: cited from earlier work
[6] = 2 mg nasal solution dose; predicted by Wermeling; cited from earlier work
[7] = tested on: patients with suspected narcotic overdose; settings: cited from earlier work
[8] = tested on: opiate addicts; settings: nasal vs intravenous route; cited from earlier work
[9] = tested on: suspected opiate overdose; settings: 2 mg IN, cited from earlier work

Row | SMILES | Dissolution into water ([1]; ambient temperatures) | Time until solution clear and chlorobutanol completely dissolved ([1]; heated USP-PW, preparation of F1(d)) [min] | patients given supplementary naloxone [2] [%] | overdose events reported reversed [3] [%] | more than 10 spontaneous respirations per minute within 8 minutes ([4]; 2 mg IM) [%] | more than 10 spontaneous respirations per minute within 8 minutes ([4]; 2 mg IN, mucosal atomizer) [%] | needing rescue naloxone ([4]; IM group) [%] | needing rescue naloxone ([4]; IN group) [%] | mean interval from EMS arrival to respiratory rate ≥10 breaths/min ([5]; naloxone 0.4 mg IV) [min] | mean interval from EMS arrival to respiratory rate ≥10 breaths/min ([5]; naloxone 0.8 mg SQ) [min] | Cmax [6] [ng/mL] | tmax [6] | clinical response ([7]; IN group) [%] | clinical response ([7]; IV group) [%] | effectiveness of nasal administration [8] | responders responding to IN naloxone alone ([9]; 43 of 52 responders) [%] | median time from administration of IN naloxone to awakening [9] [min]
1 | CC(C)(O)C(Cl)(Cl)Cl [Chlorobutanol, 1,1,1-trichloro-2-methylpropan-2-ol] | very slowly | 18 | – | – | – | – | – | – | – | – | – | – | – | – | – | – | –
2 | C=CCN1CC[C@]23c4c5ccc(O)c4O[C@H]2C(=O)CC[C@@]3(O)[C@H]1C5 [naloxone, 17-allyl-4,5a-epoxy-3,14-dihydroxymorphinan-6-one] | – | – | 4.5 | 89 | 82 | 63 | 13 | 26 | 9.3 ± 4.2 | 9.6 ± 4.58 | 3 to 5 | approximately 20 minutes | 66 | 56 | as effective as the intravenous route | 83 | 3.0
